Data published in PubChem BioAssay AID2060602 (Molecular Pharmacology Branch, DTP, NCI, 2025).
Values joined by “and” are separate entries in the source; they are usually repeats but may differ in a detail not shown here. Identical values can stand only once.

System: 648629-189-R-J1-PDC complex spheroids viability
Test: Anticancer human tumor 648629-189-R-J1-PDC patient-derived bladder carcinoma cell line growth inhibition [CLK]
Conditions: for viability, T/C: stronger effect = lower value
How it was run: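 Multi-cell-type spheroids combined patient-derived tumor cells with HUVEC endothelial cells and human mesenchymal stem cells. Paired agents were dosed in half-log steps down from about clinical Cmax, or from 10 microM where Cmax was unknown.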

[1] = curve of first compound, second compound 0.0316 µM
[2] = curve of first compound, second compound 0.1 µM
[3] = curve of first compound, second compound 0.316 µM
[4] = curve of first compound, second compound 1 µM
[5] = curve of first compound, second compound 3.16 µM
[6] = curve of first compound, second compound 10 µM
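Throughout, for viability, T/C: drug exposure lasted seven days before viability readout; 100% = DMSO vehicle control wells.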

Compound: CC(C)CC(NC(=O)C(Cc1ccccc1)NC(=O)c1cnccn1)B(O)O (stereo not drawn) + CNC(=O)c1ccc(Nc2nc(OC3CCCC3)c3c(-c4ccc5nc(C)oc5c4)c[nH]c3n2)c(OC)c1
- IC50 [1]: 3.04 nM
- IC50 [2]: 2.21 nM
- IC50 [3]: < 0.949 nM
- IC50 [4]: < 0.949 nM
- IC50 [5]: < 0.949 nM
- IC50 [6]: < 0.949 nM
- viability, T/C (second compound 0.0316 µM, first compound 0.000949 µM): 105%
- viability, T/C (second compound 0.0316 µM, first compound 0.003 µM): 50.5%
- viability, T/C (second compound 0.0316 µM, first compound 0.00949 µM): 1.99%
- viability, T/C (second compound 0.0316 µM, first compound 0.03 µM): 0.26%
- viability, T/C (second compound 0.0316 µM, first compound 0.0949 µM): 0.18%
- viability, T/C (second compound 0.0316 µM, first compound 0.3 µM): 1.59%
- viability, T/C (second compound 0.1 µM, first compound 0.000949 µM): 91.4%
- viability, T/C (second compound 0.1 µM, first compound 0.003 µM): 35%
- viability, T/C (second compound 0.1 µM, first compound 0.00949 µM): 0.64%
- viability, T/C (second compound 0.1 µM, first compound 0.03 µM): 0.21%
- viability, T/C (second compound 0.1 µM, first compound 0.0949 µM): 0.15%
- viability, T/C (second compound 0.1 µM, first compound 0.3 µM): 1.03%
- viability, T/C (second compound 0.316 µM, first compound 0.000949 µM): 34.9%
- viability, T/C (second compound 0.316 µM, first compound 0.003 µM): 35%
- viability, T/C (second compound 0.316 µM, first compound 0.00949 µM): 0.45%
- viability, T/C (second compound 0.316 µM, first compound 0.03 µM): 0.28%
- viability, T/C (second compound 0.316 µM, first compound 0.0949 µM): 0.76%
- viability, T/C (second compound 0.316 µM, first compound 0.3 µM): 0.16%
- viability, T/C (second compound 1 µM, first compound 0.000949 µM): 23.6%
- viability, T/C (second compound 1 µM, first compound 0.003 µM): 24.1%
- viability, T/C (second compound 1 µM, first compound 0.00949 µM): 2.18%
- viability, T/C (second compound 1 µM, first compound 0.03 µM): 0.36%
- viability, T/C (second compound 1 µM, first compound 0.0949 µM): 0.34%
- viability, T/C (second compound 1 µM, first compound 0.3 µM): 1.9%
- viability, T/C (second compound 3.16 µM, first compound 0.000949 µM): 28.1%
- viability, T/C (second compound 3.16 µM, first compound 0.003 µM): 9.77%
- viability, T/C (second compound 3.16 µM, first compound 0.00949 µM): 3.72%
- viability, T/C (second compound 3.16 µM, first compound 0.03 µM): 0.62%
- viability, T/C (second compound 3.16 µM, first compound 0.0949 µM): 1.49%
- viability, T/C (second compound 3.16 µM, first compound 0.3 µM): 0.23%
- viability, T/C (second compound 10 µM, first compound 0.000949 µM): 24.2%
- viability, T/C (second compound 10 µM, first compound 0.003 µM): 14.2%
- viability, T/C (second compound 10 µM, first compound 0.00949 µM): 1.91%
- viability, T/C (second compound 10 µM, first compound 0.03 µM): 0.53%
- viability, T/C (second compound 10 µM, first compound 0.0949 µM): 1.61%
- viability, T/C (second compound 10 µM, first compound 0.3 µM): 1.49%

Compound: Cn1ncnc1[C@H]1c2n[nH]c(=O)c3cc(F)cc(c23)N[C@@H]1c1ccc(F)cc1 + CNC(=O)c1ccc(Nc2nc(OC3CCCC3)c3c(-c4ccc5nc(C)oc5c4)c[nH]c3n2)c(OC)c1
- IC50 [1]: > 100 nM
- IC50 [2]: > 100 nM
- IC50 [3]: < 0.316 nM
- IC50 [4]: < 0.316 nM
- IC50 [5]: < 0.316 nM
- IC50 [6]: < 0.316 nM
- viability, T/C (second compound 0.0316 µM, first compound 0.000316 µM): 112%
- viability, T/C (second compound 0.0316 µM, first compound 0.001 µM): 98.1%
- viability, T/C (second compound 0.0316 µM, first compound 0.00316 µM): 95.4%
- viability, T/C (second compound 0.0316 µM, first compound 0.01 µM): 102%
- viability, T/C (second compound 0.0316 µM, first compound 0.0316 µM): 81.4%
- viability, T/C (second compound 0.0316 µM, first compound 0.1 µM): 73.6%
- viability, T/C (second compound 0.1 µM, first compound 0.000316 µM): 86%
- viability, T/C (second compound 0.1 µM, first compound 0.001 µM): 86.3%
- viability, T/C (second compound 0.1 µM, first compound 0.00316 µM): 81.5%
- viability, T/C (second compound 0.1 µM, first compound 0.01 µM): 83%
- viability, T/C (second compound 0.1 µM, first compound 0.0316 µM): 68.3%
- viability, T/C (second compound 0.1 µM, first compound 0.1 µM): 75.8%
- viability, T/C (second compound 0.316 µM, first compound 0.000316 µM): 25.7%
- viability, T/C (second compound 0.316 µM, first compound 0.001 µM): 25.6%
- viability, T/C (second compound 0.316 µM, first compound 0.00316 µM): 30%
- viability, T/C (second compound 0.316 µM, first compound 0.01 µM): 21%
- viability, T/C (second compound 0.316 µM, first compound 0.0316 µM): 22.4%
- viability, T/C (second compound 0.316 µM, first compound 0.1 µM): 21.3%
- viability, T/C (second compound 1 µM, first compound 0.000316 µM): 18.4%
- viability, T/C (second compound 1 µM, first compound 0.001 µM): 18.9%
- viability, T/C (second compound 1 µM, first compound 0.00316 µM): 17.2%
- viability, T/C (second compound 1 µM, first compound 0.01 µM): 18.1%
- viability, T/C (second compound 1 µM, first compound 0.0316 µM): 15.6%
- viability, T/C (second compound 1 µM, first compound 0.1 µM): 12.5%
- viability, T/C (second compound 3.16 µM, first compound 0.000316 µM): 19.2%
- viability, T/C (second compound 3.16 µM, first compound 0.001 µM): 18.4%
- viability, T/C (second compound 3.16 µM, first compound 0.00316 µM): 19.3%
- viability, T/C (second compound 3.16 µM, first compound 0.01 µM): 16.3%
- viability, T/C (second compound 3.16 µM, first compound 0.0316 µM): 17%
- viability, T/C (second compound 3.16 µM, first compound 0.1 µM): 16.6%
- viability, T/C (second compound 10 µM, first compound 0.000316 µM): 18.1%
- viability, T/C (second compound 10 µM, first compound 0.001 µM): 19.5%
- viability, T/C (second compound 10 µM, first compound 0.00316 µM): 20.3%
- viability, T/C (second compound 10 µM, first compound 0.01 µM): 17.7%
- viability, T/C (second compound 10 µM, first compound 0.0316 µM): 19.4%
- viability, T/C (second compound 10 µM, first compound 0.1 µM): 14.8%

Compound: C=CC(=O)N1CCN(c2nc(=O)n(-c3c(C)ccnc3C(C)C)c3nc(-c4c(O)cccc4F)c(F)cc23)C(C)C1 (stereo not drawn)
- viability, T/C (compound 0.0316 µM): 84.4% and 97.4%
- viability, T/C (compound 0.1 µM): 95.1% and 95.9%
- viability, T/C (compound 0.316 µM): 99.2% and 102%
- viability, T/C (compound 1 µM): 106% and 98.1%
- viability, T/C (compound 3.16 µM): 104% and 96.5%
- viability, T/C (compound 10 µM): 89.5% and 94.4%
- IC50 (curve of compound): > 10000 nM

Compound: C=CC(=O)Nc1cc(Nc2nccc(-c3cn(C)c4ccccc34)n2)c(OC)cc1N(C)CCN(C)C
- viability, T/C (compound 0.000949 µM): 99.8% and 108%
- viability, T/C (compound 0.003 µM): 92.8% and 88.8%
- viability, T/C (compound 0.00949 µM): 103% and 107%
- viability, T/C (compound 0.03 µM): 110% and 92.8%
- viability, T/C (compound 0.0949 µM): 104% and 111%
- viability, T/C (compound 0.3 µM): 83.7% and 87.5%
- IC50 (curve of compound): > 300 nM
